# From patent US20260234123A1, “Inhibitors of NLRP3” (Mwyngil Therapeutics, Inc., priority 2023, published 2026)
# Read-outs that look alike come from different tables or passages of the source.
# Test system: IL1b release THP-1
# Test: IL1b release THP-1 (ELISA)
# Type: cell-based
# Details: Homo sapiens
# Procedure: Example A. Primary Assays Used to Determine IL1b Release THP-1 (ELISA)
# • Microbiological safety cabinet, classII (NuAire, USA) • CO2 incubator (VWR Science, USA) • Countess Automated Cell Counter (Invitrogen, USA, cat. number C10227) • Centrifuge CM 6M (Elmi, Latvia) • Serological pipettes 2, 5, 10, 25, 50, 100 ml sterile (Santa Cruz Biotechnology, Inc., USA, sc-200277, sc-200279, sc-200281, sc-200283, Sc-213234, sc-516777) • Single and multichannel pipettes 0.2-10 μL, 50-1200 μL (Eppendorf AG-Hamburg, Germany) • 50 mL PP sterile tubes (Greiner, cat. Number 210261).
# • RPMI-1640 (PanEco, C330) • Sodium pyruvate (Paneco, cat. number Φ023) • Non-Essential amino acids 50× (Paneco, Φ116) • Essential amino acids 50× (Paneco, Φ115/50) • FBS (Hyclone Laboratories Inc, USA, SV30160.03) • Antibiotic-antimycotic (Gibco, USA, 15240-062) • 2-mercaptoethanol 1000×55 mM (Gibco, USA, 21985-023) • LPS-EB ultrapure (invivogen, cat. number tlrl-3pelps) • Nigericin (Sigma, cat. number N7143) • ELISA kit, IL-1beta (Cat #A-8766, Interleukin-1 beta-EIA-BEST, Vector Best). LPS Preparation (5 mg/ml): • 1. Add 1 ml of endotoxin-free water according manufacturer's protocol • 2. Vortex until complete solubilization • 3. Aliquote and store at […] for long term storage.
# • 1. Add methanol to 10 mg of powder to produce the 10 mM Nigericin solution • 2. Vortex until complete solubilization • 3. Store at 4° C.
# THP-1 cells were propagated in RPMI-1640 (10% FBS, Antibiotic-antimycotic 1×, non-Essential amino acids 1×, Essential amino acids 1×, Sodium pyruvate 2×, 2-mercaptoethanol 0.05 mM) at 37° C. and at 5% CO2 in an incubator.
# • 1. THP-1 cells were spined at 100 g for 5 min in 50 ml tube. • 2. THP-1 cells were resuspended in warm culture medium (w/o FBS, w/o Antibiotic-antimycotic, non-Essential amino acids 1×, Essential amino acids 1×, Sodium pyruvate 2×) to the concentration 1,3×10^6 cells. • 3. THP-1 cells were primed in tube with 1 μg/ml of LPS for 4 h at 37° C. and at 5% CO2 in an incubator. • 4. THP-1 cells were stimulated with 10 μM of Nigericin (Cat #N7143-10 MG, Sigma Aldrich) for 2 h at 37° C. and at 5% CO2 in an incubator. • 5. After the full activation, the supernatant was collected and the levels of IL-1β were assessed via ELISA according manufacturer instructions (Cat #A-8766, Vector Best).
# The average EC50 values are shown in Table A, wherein “A” corresponds to EC50: A≤0.5 μM, “B” corresponds to 0.5 μM<EC50≤1.0 μM, “C” 1.0 μM<EC50≤5.0 μM, “D” corresponds to 5.0 μM<EC50≤30 μM and “E” corresponds to EC50>30 μM.
# [1] = average EC50, THP-1 cells primed with 1 μg/ml LPS 4 h, stimulated with 10 μM Nigericin 2 h, IL-1β in supernatant by ELISA, read-out: THP 1 IL 1b, EC50
# [2] = THP-1, read-out: THP 1 IL 1b, EC50, μM
EC50 [1] [µM],Compound,EC50 [2] [µM]
1 to 5,"Cc1cc(C(F)(F)F)cc(NS(C)(=O)=O)c1-c1ccc(N[C@@H]2CCCN(C)C2)nn1 [Compound 1, (R)—N-(3-methyl-2-(6-((1-methylpiperidin-3-yl)amino)pyridazin-3-yl)-5-(trifluoromethyl)phenyl) methanesulfonamide]",
0.5 to 1,"CCN1CCC[C@@H](Nc2ccc(-c3c(C)cc(C(F)(F)F)cc3NS(C)(=O)=O)nn2)C1 [Compound 2, (R)—N-(2-(6-((1-Ethylpiperidin-3-yl)amino)pyridazin-3-yl)-3-methyl-5-(trifluoromethyl)phenyl) methanesulfonamide]",
0.5 to 1,"Cc1cc(N[C@@H]2CCCN(C)C2)nnc1-c1ccc(C(F)(F)F)cc1NS(C)(=O)=O [Compound 4, (R)—N-(2-(4-Methyl-6-((1-methylpiperidin-3-yl)amino)pyridazin-3-yl)-5-(trifluoromethyl)phenyl) methanesulfonamide]",
< 0.5,"CCN1CCC[C@@H](Nc2cc(C)c(-c3ccc(C(F)(F)F)cc3NS(C)(=O)=O)nn2)C1 [Compound 5, (R)—N-(2-(6-((1-Ethylpiperidin-3-yl)amino)-4-methylpyridazin-3-yl)-5-(trifluoromethyl)phenyl) methanesulfonamide]",
0.5 to 1,"Cc1cc(N[C@@H]2CCCN(CCO)C2)nnc1-c1ccc(C(F)(F)F)cc1NS(C)(=O)=O [Compound 6, (R)—N-(2-(6-((1-(2-Hydroxyethyl)piperidin-3-yl)amino)-4-methylpyridazin-3-yl)-5-(trifluoromethyl)phenyl) methanesulfonamide]",
< 0.5,"Cc1cc(-c2ccc(C(F)(F)F)cc2NS(C)(=O)=O)nnc1N[C@@H]1CCCN(C)C1 [Compound 7, (R)—N-(2-(5-Methyl-6-((1-methylpiperidin-3-yl)amino)pyridazin-3-yl)-5-(trifluoromethyl)phenyl) methanesulfonamide]",
< 0.5,"CCN1CCC[C@@H](Nc2nnc(-c3ccc(C(F)(F)F)cc3NS(C)(=O)=O)cc2C)C1 [Compound 8, (R)—N-(2-(6-((1-Ethylpiperidin-3-yl)amino)-5-methylpyridazin-3-yl)-5-(trifluoromethyl)phenyl) methanesulfonamide]",
0.5 to 1,"Cc1cc(-c2ccc(C(F)(F)F)cc2NS(C)(=O)=O)nnc1N[C@@H]1CCCN(CCO)C1 [Compound 9, (R)—N-(2-(6-((1-(2-Hydroxyethyl)piperidin-3-yl)amino)-5-methylpyridazin-3-yl)-5-(trifluoromethyl)phenyl) methanesulfonamide]",
5 to 30,"Cc1cc(N[C@@H]2CCCN(C)C2)nnc1-c1ccc(C(F)(F)F)c2c1NS(=O)(=O)N2 [Compound 10, (R)-4-(4-Methyl-6-((1-methylpiperidin-3-yl)amino)pyridazin-3-yl)-7-(trifluoromethyl)-1,3-dihydrobenzo[c][1,2,5]thiadiazole 2,2-dioxide]",
1 to 5,"Cc1cc(N[C@@H]2CCCN(C)C2)nnc1-c1ccc(C(F)(F)F)c2cn[nH]c12 [Compound 14, (R)-5-Methyl-N-(1-methylpiperidin-3-yl)-6-(4-(trifluoromethyl)-1H-indazol-7-yl)pyridazin-3-amine]",
1 to 5,"CCN1CCC[C@@H](Nc2cc(C)c(-c3ccc(C(F)(F)F)c4cn[nH]c34)nn2)C1 [Compound 15, (R)—N-(1-Ethylpiperidin-3-yl)-5-methyl-6-(4-(trifluoromethyl)-1H-indazol-7-yl)pyridazin-3-amine]",
1 to 5,"Cc1cc(N[C@@H]2CCCN(CCO)C2)nnc1-c1ccc(C(F)(F)F)c2cn[nH]c12 [Compound 16, (R)-2-(3-((5-Methyl-6-(4-(trifluoromethyl)-1H-indazol-7-yl)pyridazin-3-yl)amino)piperidin-1-yl) ethan-1-ol]",
5 to 30,"Cc1cc(-c2ccc(C(F)(F)F)c3cn[nH]c23)nnc1N[C@@H]1CCCN(C)C1 [Compound 17, (R)-4-Methyl-N-(1-methylpiperidin-3-yl)-6-(4-(trifluoromethyl)-1H-indazol-7-yl)pyridazin-3-amine]",
> 30,"CCN1CCC[C@@H](Nc2nnc(-c3ccc(C(F)(F)F)c4cn[nH]c34)cc2C)C1 [Compound 18, (R)—N-(1-ethylpiperidin-3-yl)-4-methyl-6-(4-(trifluoromethyl)-1H-indazol-7-yl)pyridazin-3-amine]",
> 30,"Cc1cc(-c2ccc(C(F)(F)F)c3cn[nH]c23)nnc1N[C@@H]1CCCN(CCO)C1 [Compound 19, 2-[(3R)-3-[[4-methyl-6-[4-(trifluoromethyl)-1H-indazol-7-yl]pyridazin-3-yl]amino]-1-piperidyl]ethanol]",
> 30,"Cc1cc(N[C@@H]2CCCN(C)C2)nnc1-c1ccc(C(F)(F)F)c2nn[nH]c12 [Compound 20, (R)-5-Methyl-N-(1-methylpiperidin-3-yl)-6-(4-(trifluoromethyl)-1H-benzo[d][1,2,3]triazol-7-yl)pyridazin-3-amine]",
5 to 30,"Cc1cc(-c2ccc(C(F)(F)F)c3nn[nH]c23)nnc1N[C@@H]1CCCN(C)C1 [Compound 21, 4-methyl-N-[(3R)-1-methyl-3-piperidyl]-6-[7-(trifluoromethyl)-3H-benzotriazol-4-yl]pyridazin-3-amine]",
5 to 30,"Cc1c(N[C@@H]2CCCN(C)C2)nnc(-c2ccc(C(F)(F)F)c3nn[nH]c23)c1C [Compound 22, (R)-4,5-dimethyl-N-(1-methylpiperidin-3-yl)-6-(4-(trifluoromethyl)-1H-benzo[d][1,2,3]triazol-7-yl)pyridazin-3-amine]",
> 30,CN1CCC[C@@H](Nc2cc(C(F)(F)F)c(-c3ccc(C(F)(F)F)c4nn[nH]c34)nn2)C1 [Compound 23],
> 30,CN1CCC[C@@H](Nc2nnc(-c3ccc(C(F)(F)F)c4nn[nH]c34)cc2C(F)(F)F)C1 [Compound 24],
,"Cc1cc(-c2ccc(C(F)(F)F)cc2NS(C)(=O)=O)nnc1N[C@@H]1CCCN(C(C)C)C1 [Compound 25, (R)—N-(2-(6-((1-Isopropylpiperidin-3-yl)amino)-5-methylpyridazin-3-yl)-5-(trifluoromethyl)phenyl) methanesulfonamide]",< 0.5
< 0.5,"Cc1cc(-c2ccc(C(F)(F)F)cc2NS(C)(=O)=O)nnc1N[C@@H]1CCCN(C2CCCC2)C1 [Compound 26, (R)—N-(2-(6-((1-Cyclopentylpiperidin-3-yl)amino)-5-methylpyridazin-3-yl)-5-(trifluoromethyl)phenyl) methanesulfonamide]",
< 0.5,Cc1cc(N[C@@H]2CCCN(C(C)C)C2)nnc1-c1ccc(C(F)(F)F)cc1NS(C)(=O)=O [Compound 27],
< 0.5,"CCN1CCC[C@@H](Nc2nnc(-c3ccc(C(F)(F)F)cc3NS(C)(=O)=O)cc2C2CC2)C1 [Compound 28, (R)—N-(2-(5-Cyclopropyl-6-((1-ethylpiperidin-3-yl)amino)pyridazin-3-yl)-5-(trifluoromethyl)phenyl) methane-sulfonamide]",
1 to 5,"Cc1cc(-c2ccc(C(F)(F)F)cc2NC(=O)C(C)C)nnc1N[C@@H]1CCCN(C(C)C)C1 [Compound 29, N-[2-[6-[[(3R)-1-isopropyl-3-piperidyl]amino]-5-methyl-pyridazin-3-yl]-5-(trifluoromethyl)phenyl]-2-methyl-propanamide]",
< 0.5,"CCN1CCC[C@@H](Nc2nnc(-c3ccc(C(F)(F)F)cc3NS(C)(=O)=O)c3c2C2CCC3CC2)C1 [Compound 30, (R)—N-(2-(4-((1-Ethylpiperidin-3-yl)amino)-5,6,7,8-tetrahydro-5,8-ethanophthalazin-1-yl)-5-(trifluoromethyl)phenyl) methanesulfonamide]",
,"Cc1cc(-c2ccc(C(F)(F)F)cc2NS(C)(=O)=O)nnc1N[C@@H]1CCCN(C2CCC2)C1 [Compound 31, (R)—N-(2-(6-((1-Cyclobutylpiperidin-3-yl)amino)-5-methylpyridazin-3-yl)-5-(trifluoromethyl)phenyl) methanesulfonamide]",< 0.5
